{
  "source": "patent US9724309B2",
  "about": "“Film-form preparation and method for producing the same” (NITTO DENKO CORPORATION, priority 2010, dated 2017)",
  "data": [
    {"assay": "Particle size of drug particles by electron microscope", "assay_type": "physicochemical", "conditions": "200 particles", "experimental": "The various drug particles used in the Examples and Comparative Examples were obtained passing the powder through a 32 μm, 53 μm, 90 μm sieve after pulverization, or obtained fine particles by a jet mill (product of Hosokawa Micron Group, spiral jet mill model 50AS) or a spray dryer (product of Büchi Labortechnik AG, mini spray dryer model B-290) after pulverization. The particle sizes of these drug particles were measured by electron microscope (product of Hitachi High-Technologies Corp., model TM-1000) and the 50 vol % average particle size was calculated from the measurement results of 200 particles. This value was used as the particle size index of the particles.", "units": {"50 vol % average particle size": "um"}, "values": [
      {"compound": "Cn1c(=O)c2[nH]cnc2n(C)c1=O", "note": "[Aminophyllin particles, Aminophyllin]", "50 vol % average particle size": 4.3},
      {"compound": "N[C@@H](CCC(=O)N[C@@H](CS)C(=O)NCC(=O)O)C(=O)O", "note": "[Glutathione (reduced form) particles, Glutathione (reduced form)]", "50 vol % average particle size": 5.3},
      {"compound": "COc1cc(S(=O)(=O)[O-])ccc1O.O.[K+]", "note": "[Potassium guaiacolsulfonate particles A, Potassium guaiacolsulfonate]", "50 vol % average particle size": 2.1},
      {"compound": "COc1cc(S(=O)(=O)[O-])ccc1O.O.[K+]", "note": "[Potassium guaiacolsulfonate particles B, Potassium guaiacolsulfonate]", "50 vol % average particle size": 40.4},
      {"compound": "COc1cc(S(=O)(=O)[O-])ccc1O.O.[K+]", "note": "[Potassium guaiacolsulfonate particles C, Potassium guaiacolsulfonate]", "50 vol % average particle size": 80.4},
      {"compound": "COc1cc(S(=O)(=O)[O-])ccc1O.O.[K+]", "note": "[Potassium guaiacolsulfonate particles, Potassium guaiacolsulfonate]", "50 vol % average particle size": 5.0}
    ]}
  ]
}
